Key:
[1] = target: T1, recombinant human secreted phospholipase A2 (Homo sapiens, UniProt P14555); assay: sPLA2 Chromogenic Assay (Assay 1); type: biochemical; conditions: diheptanoyl thio-PC substrate, pH 7.5, 40° C. for 30 minutes, absorbance at 405 nanometers
T1 sequence (P14555 21-144): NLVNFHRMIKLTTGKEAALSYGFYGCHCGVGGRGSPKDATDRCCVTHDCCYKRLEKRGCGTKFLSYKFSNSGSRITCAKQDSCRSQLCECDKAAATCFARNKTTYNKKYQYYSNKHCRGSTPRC
Method: The following chromogenic assay procedure was used to identify and evaluate inhibitors of recombinant human secreted phospholipase A2. The assay described herein has been adapted for high volume screening using 96 well microtiter plates.
A measured volume of racemic dipheptanoyl thio PC supplied in chloroform at a concentration of 100 mg/ml is taken to dryness and redissolved in 10 millimolar TRITON X-100™ nonionic detergent aqueous solution. Reaction Buffer is added to the solution, then DTNB to give the Reaction Mixture.
The reaction mixture thus obtained contains 1 mM diheptanoyl thio-PC substrate, 0.29 mm Triton X-100™ detergent, and 0.12 mm DTMB in a buffered aqueous solution at pH 7.5.
1. Add 0.2 ml reaction mixture to all wells;
2. Add 10 ul test compound (or solvent blank) to appropriate wells, mix 20 seconds;
3. Add 50 nanograms of sPLA2 (10 microliters) to appropriate wells;
4. Incubate plate at 40° C. for 30 minutes;
All compounds were tested in triplicate. […] Each sample was titrated in triplicate and result values were averaged for plotting and calculation of IC50 values.

Row | SMILES | IC50 [1] [nM] | melting point
1 | CCc1c(C(=O)C(N)=O)c2c(OCC(=O)OC(C)(C)C)cccn2c1Cc1ccccc1 [Compound 38a, (3-Benzyl-8-(t-butoxycarbonylmethyloxy)-2-ethylindolizin-1-yl)glyoxylamide] | 52 | 161 to 162 °C
2 | CCc1c(C(=O)C(N)=O)c2c(OCC(=O)OC)cccn2c1CC1CCCC1 [Compound 51c, 2-(8-(Carbomethoxymethyloxy)-3-cyclopentylmethyl-2-ethylindolizin-1-yl)glyoxylamide] | 430 | 158 to 159 °C
3 | CCc1c(C(=O)C(N)=O)c2c(OCC(=O)O)cccn2c1Cc1sccc1-c1cccs1 [Compound 52l, 2-(8-(Carboxymethyloxy)-2-ethyl-3-((3-thiophen-2-yl)thiophen-2-ylmethyl)indolizin-1-yl)glyoxylamide] | 10 | 209 to 210 °C
4 | CCc1c(C(=O)C(=O)N(C)C)c2c(OCC(=O)O)cccn2c1Cc1ccccc1-c1ccccc1 [Compound 40f, (8-(Carboxymethyloxy)-2-ethyl-3-(o-phenylbenzyl)indolizin-1-yl)glyoxyl-N,N-dimethylamide] | > 50000 | 208 to 209 °C
5 | CCCC(CCC)Cc1c(CC)c(C(=O)C(N)=O)c2c(OCC(=O)OC)cccn12 [Compound 51f, 2-(8-(Carbomethoxymethyloxy)-2-ethyl-3-(2-propylpentyl)indolizin-1-yl)glyoxylamide] | 590 | 114 to 115 °C
6 | CCc1c(C(=O)C(N)=O)c2c(OCC(=O)OCCN3CCOCC3)cccn2c1Cc1ccccc1-c1ccccc1 [Compound 59i, 2-(3-(Biphenyl-2-yl-methyl)-2-ethyl-8-(2-morpholinoethyloxycarbonylmethyloxy)indolizine-1-yl)glyoxylamide] | 22 | 113 to 120 °C (dec.)
7 | CCc1c(C(=O)C(N)=O)c2c(OCC(=O)OC)cccn2c1CC1CCCCCC1 [Compound 51d, 2-(8-(Carbomethoxymethyloxy)-3-cycloheptylmethyl-2-ethylindolizin-1-yl)glyoxylamide] | 550 | 147 to 148 °C
8 | Cc1c(C(=O)C(N)=O)c2c(OCc3ccccn3)cccn2c1Cc1ccccc1-c1ccccc1 [Compound 59n, 2-(3-Biphenyl-2-ylmethyl-2-methyl-8-(pyridin-2-ylmethoxy)-indolizin-1-yl)-glyoxylamide] | 600 | 196 to 197 °C
9 | Cc1c(C(=O)C(N)=O)c2ccccn2c1Cc1ccccc1 [Compound 34, (3-Benzyl-2-methylindolizin-1-yl)glyoxylamide] | 890 | 198 to 199 °C
10 | NC(=O)C(=O)c1c(C2CC2)c(Cc2cccc3ccccc23)n2cccc(OCC(=O)O)c12 [Compound 58j, 2-(8-carboxymethoxyl-2-cyclopropyl-3-(1-naphthylmethyl)indlolin-1-yl)glyoxylamide] | 23 | 205 to 207 °C
11 | CCc1c(C(=O)C(N)=O)c2c(OCC(=O)O)cccn2c1Cc1cccc(-c2ccccc2)c1 [Compound 58g, 2-(8-Carboxymethyloxy-2-ethyl-3-(m-phenylbenzyl)indlolin-1-yl)glyoxylamide] | 9 | 241 to 244 °C
12 | CCc1c(C(=O)C(N)=O)c2c(OCCC(=O)OC)cccn2c1Cc1ccccc1-c1ccccc1 [Compound 70c, 2-(3-(Biphenyl-2-yl-methyl)-8-(2-carbomethoxyethyloxy)-2-ethylindolizine-1-yl)glyoxylamide] | 130 | 159 to 162 °C
13 | CCc1c(C(=O)C(N)=O)c2c(OCC(=O)OC)cccn2c1Cc1ccccc1Cc1ccccc1 [Compound 51j] | 20 | 190 to 191 °C
14 | Cc1c(C(=O)C(N)=O)c2c(OCc3ccc4ccccc4n3)cccn2c1Cc1ccccc1-c1ccccc1 [Compound 59p, 2-(3-Biphenyl-2-ylmethyl-2-methyl-8-(quinolin-2-ylmethoxy)-indolizin-1-yl)-glyoxylamide] | 200 | 165 to 167 °C
15 | CCOC(=O)COc1cccn2c(Cc3ccccc3)c(C)c(C(=O)C(N)=O)c12 [Compound 37g, (3-Benzyl-8-(carbethoxymethyloxy)-2-methylindolizin-1-yl)glyoxylamide] | 23 | 193 to 195 °C
16 | CCc1c(C(=O)C(N)=O)c2c(OCc3ccccc3)cccn2c1Cc1ccccc1 [Compound 35a, (3-Benzyl-8-benzyloxy-2-ethylindolizin-1-yl)glyoxylamide] | 400 | 188 to 189 °C
17 | CCc1c(C(=O)C(N)=O)c2c(OCC(=O)OCC(C)=O)cccn2c1Cc1ccccc1-c1ccccc1 [Compound 59k, 2-(3-(Biphenyl-2-yl-methyl)-2-ethyl-8-(2-oxopropyloxycarbonylmethoxy)indolizine-1-yl)glyoxylamide] | 113 | 159 to 162 °C
18 | CCOC(=O)COc1cccn2c(Cc3ccccc3-c3ccccc3)c(CC)c(C(=O)C(N)=O)c12 [Compound 37d, (8-(Carbethoxymethyloxy)-2-ethyl-3-(o-phenylbenzyl)indolizin-1-yl)glyoxylamide] | 13 | 127 to 129 °C

— patent US6645976B1 (Eli Lilly and Company, priority 1994, dated 2003)
